Data from patent US4734418A, “Quinazoline compounds and antihypertensives” (priority 1984, dated 1988).
Read-outs that look alike come from different tables or passages of the source.

Columns and labels:
[1] = solubility in DMSO (NMR not measured); type: physicochemical; conditions: HCl salt
[2] = test system: Spontaneously Hypertensive Rats; test: Test 1: antihypertensive effects (systolic tail artery blood pressure) and heart rate in spontaneously hypertensive rats, oral; type: in vivo, rat (male, SHR); conditions: for change in vivo at 1 mg/kg: Rattus norvegicus; for Change (%) in heart rate: maximum value
How it was run: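 Male SHRs aged 20 weeks or older (350-430 g), with systolic pressure of 180 mmHg or higher, were used in groups of 3-4. Compounds in 0.5% methylcellulose were given orally, mostly at 1 mg/Kg. Systolic tail-artery blood pressure and heart rate were measured together as percent change.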

Mouse = test: Test 2: acute toxicity, mouse, oral; type: in vivo, male ddy-mice; conditions: fourteenth day
Method: (§1) The acute toxicity of certain compounds of this invention were studied in the following manner.
(§2) Namely, male ddy-mice of 5 weeks of age and male Wister rats of 8 weeks of age were fasted for 18 hours and used in groups each of which was constituted of 4-5 of mice or rats. The compounds were each dissolved or suspended in a 0.5% methylcellulose solution and administered orally (P.O.). On the fourteenth day after the administration, their toxicity were judged.
(§3) Each numeral set indicates the number of dead animals/the number of teste
(§4) animals. Hyphens (--) indicate that no tests were effected.

Rat = test: Test 2: acute toxicity, rat, oral; type: in vivo, male Wister rats; conditions: fourteenth day
Method: as §1, §2, §3, §4

[3] = SHR, oral 1 mg/Kg, 1 hour, read-out: Antihypertensive effects, change (%) in blood pressure, 1 hour later
[4] = SHR, oral 1 mg/Kg, 3 hours, read-out: Antihypertensive effects, change (%) in blood pressure, 3 hours later
[5] = SHR, oral 1 mg/Kg, 6 hours, read-out: Antihypertensive effects, change (%) in blood pressure, 6 hours later
[6] = SHR, oral 1 mg/Kg, 24 hours, read-out: Antihypertensive effects, change (%) in blood pressure, 24 hours later

SMILES	solubility in DMSO [1]	change in vivo at 1 mg/kg [2, 3] [%]	change in vivo at 1 mg/kg [2, 4] [%]	change in vivo at 1 mg/kg [2, 5] [%]	change in vivo at 1 mg/kg [2, 6] [%]	Change (%) in heart rate ([2]; SHR, oral 1 mg/Kg)	Acute Toxicity, number of dead animals/number of tested animals (Mouse; 1 g/Kg P.O.)	Acute Toxicity, number of dead animals/number of tested animals (Mouse; 3 g/Kg P.O.)	Acute Toxicity, number of dead animals/number of tested animals (Rat; 1 g/Kg P.O.)	Acute Toxicity, number of dead animals/number of tested animals (Rat; 3 g/Kg P.O.)	change in vivo at 1 mg/kg ([2]; po, 1 h, read-out: Antihypertensive effects, change (%) in blood pressure, 1 hour later) [%]	change in vivo at 1 mg/kg ([2]; po, 3 h, read-out: Antihypertensive effects, change (%) in blood pressure, 3 hours later) [%]	change in vivo at 1 mg/kg ([2]; po, 6 h, read-out: Antihypertensive effects, change (%) in blood pressure, 6 hours later) [%]	change in vivo at 1 mg/kg ([2]; po, 24 h, read-out: Antihypertensive effects, change (%) in blood pressure, 24 hours later) [%]
COc1cc2nc(N3CCN(c4ncc5c(n4)CNC5=O)CC3)nc(N)c2cc1OC [Example 22]	insolubility	-1.5	-10.1	-17.1	-4	+17.7%								
CCNc1nc(N2CCN(c3nc(N)c4cc(OC)c(OC)cc4n3)CC2)ncc1C(=O)OC.Cl [Example 2, 4-Amino-6,7-dimethoxy-2-(4-(4-ethylamino-5-methoxycarbonylpyrimidine-2-yl)piperazino)quinazoline hydrochloride]		-9	-23.9	-38.8	-16.4	+18.4%	0/5	0/5	0/5	0/5				
CCn1ccc2nc(N3CCN(c4nc(N)c5cc(OC)c(OC)cc5n4)CC3)ncc2c1=O [Example 1, 4-Amino-6,7-dimethoxy-2-(4-(5,6-dihydro-6-ethyl-5-oxopyrido[4,3-d]pyrimidin-2-yl)piperazino)quinazoline]		-10.7	-17.3	-23	-8.2	+4.1%	0/5	0/5	0/5	0/5				
COc1cc2nc(N3CCN(c4ncc5c(=O)n(C)ccc5n4)CC3)nc(N)c2cc1OC [Example 4]		-4.4	-22.1	-26.5	-16.7	+5.7%	0/5	0/5	0/5	0/5				
CCCC(=O)N1CCCN(c2nc(N)c3cc(OC)c(OC)cc3n2)CC1 [Example E-643, Bunazosin, reference compound]		-4.8	-12	-13.5	-6.7	+8.8%	0/5		2/4					
CCN1C(=O)Cc2cnc(N3CCN(c4nc(N)c5cc(OC)c(OC)cc5n4)CC3)nc21 [Example 28]		-17.2	-15.3	-31.6	-3.3	+11.7%	0/5							
COc1cc2nc(N3CCN(C(=O)c4ccco4)CC3)nc(N)c2cc1OC [Prazosin, prazosin, reference compound]						+8.0%	0/5	0/5	0/5	0/3	-23.6	-25.1	-24.6	-5
COc1cc2nc(N3CCN(c4ncc5c(n4)N(C)C(=O)C5)CC3)nc(N)c2cc1OC [Example 29]		-5.2	-23	-35.2	-13.1	+10.1%	0/5	0/5	0/5	0/4				
COC(=O)c1cnc(N2CCN(c3nc(N)c4cc(OC)c(OC)cc4n3)CC2)nc1NC(C)C [Example 62]		-1.4	-24	-31.3	-21.2	+7.6%	0/5		0/5					
COc1cc2nc(N3CCN(c4ncc5c(n4)CN(C)C5=O)CC3)nc(N)c2cc1OC [Example 24]		-7.2	-24.8	-28.6	-8.7	+12.0%	0/5	0/5	0/5	0/5				
CCN1CCC(=O)c2cnc(N3CCN(c4nc(N)c5cc(OC)c(OC)cc5n4)CC3)nc21 [Example 21]		-17.2	-23.2	-23.6	-3.4	+7.4%	0/4							
COc1cc2nc(N3CCN(c4ncc5c(n4)N(C(C)C)C(=O)C5)CC3)nc(N)c2cc1OC [Example 30]		-7.4	-24.7	-32.1	-8.8	+11.7%	0/5							
CCNC(=O)c1cnc(N2CCN(c3nc(N)c4cc(OC)c(OC)cc4n3)CC2)nc1NCC [Example 66]		-18	-23.7	-28.9	-16	+3.8%	0/5							
